Marks after values point to notes of the source that are not given here.
What was measured:
[1] = tested on: mouse hippocampal slices perfused with 200 nM oligomeric Aβ; experiment: Electrophysiological analysis (LTP, CA1 fEPSP) of hippocampal slices perfused with oligomeric Aβ; format: cell-based, C57BI6 mice; conditions: for Aβ-induced LTP defect: 200 nM oligomeric Aβ
Description: Animals: C57BI6 mice of both sexes were used for these experiments. They were obtained by a breeding colony maintained at the animal facility of Columbia University.
Aβ was prepared as previously described (Stine at al, J Biol Chem. 2003).
Electrophysiological Analysis was performed on […] hippocampal slices, cut with a tissue chopper and maintained in an interface chamber at 29° C. for 90 min prior to recording. Briefly, CA1 fEPSPs were recorded by placing both the stimulating and the recording electrodes in CA1 stratum radiatum. Basal synaptic transmission was assayed, either by plotting the stimulus voltages against slopes of fEPSP, or by plotting the peak amplitude of the fiber volley against the slope of the fEPSP. A 10 min baseline was recorded every min at an intensity that evokes a response, ˜35% of the maximum evoked response in the presence of vehicle. Then slices were either perfused with 200 nM oligomeric Aβ or vehicle with or without compound for 20 min prior to applying a theta burst stimulation (4 pulses at 100 Hz, with the bursts repeated at 5 Hz and each tetanus including 3 ten-burst trains separated by 15 sec). Data was subjected to statistical analyses to determine the effects of combination on inhibiting synaptic dysfunction.
Slices were coded to blind investigators with respect to treatment. Results were expressed with Standard Error of the Mean (SEM). Level of significance was set for p<0.05. Results were analyzed by ANOVA analysis with post-hoc correction.

[2] = tested on: early AD patients and early PD patients; experiment: Phase 2a double-blind, placebo-controlled study in early AD and early PD patients; format: in vivo, human
[3] = tested on: patients with mild to moderate AD; experiment: Randomized, double-blind, placebo-controlled Phase II/III study in mild to moderate AD (NCT05686044); format: in vivo, human
Description: A randomized, double-blind, placebo-controlled Phase II/III study trial investigating the efficacy, safety, and tolerability of buntanetap in patients with mild to moderate AD was conducted. This was a dose-ranging study where patients received either one of three doses of buntanetap (7.5 mg, 15 mg, or 30 mg) or placebo on top of their standard of care for 12 weeks. In this study, over 700 patients were screened, a total of 353 patients were enrolled, and 325 patients completed the study across 54 sites in the US. The study included mild to moderate AD patients whose Mini Mental State Examination (MMSE) scores at baseline ranged from 14 to 24. (www.clinicaltrials.gov (NCT05686044)).
Beyond safety, the trial assessed the changes in two co-primary endpoints: Alzheimer's Disease Assessment Scale-Cognitive Subscale 11 (ADAS-Cog 11) and Alzheimer's Disease Cooperative Study Clinician's Global Impression of Change (ADCS-CGIC), which assess cognition and activities of daily living. The study monitored for safety and collected plasma to measure several biomarkers to assess the disease state, potential disease progression, and treatment effects.

[4] = tested on: APP; experiment: APP in vitro, Western blot in SH-SY-5Y human neuroblastoma cells; format: cell-based; conditions: SH-SY-5Y cells, 0, 0.1, 1, 5 and 10 μM
Text: (§1) Buntanetap's effect on neurotoxic proteins.

[5] = tested on: APP and its fragments; experiment: APP in vivo: APP/PS1 transgenic AD mice, hippocampus
Text: as §1
FIG. 2A, APP in vivo. […] GAPDH and Synaptophysin were loading controls. FIG. 2 also includes a collection of graphs showing relative density of APP plotted against control and time after buntanetap treatment; relative density of CTFβ plotted against control and time after buntanetap treatment; relative density of CTFα plotted against control and time after buntanetap treatment; Aβ42 levels in brain tissue plotted against control and time after buntanetap treatment; and Aβ40 levels in brain tissue plotted against control and time after buntanetap treatment. Finally, FIG. 2 also includes a Western blot showing levels of APP, NSB, CTFβ, and CTFα after buntanetap treatment over time (minutes).

[6] = cited from earlier work
[7] = tested on: APP, Tau, and αSYN in the cerebrospinal fluid (CSF); conditions: cited from earlier work
[8] = tested on: early AD patients and early PD patients; conditions: cited from earlier work
[9] = tested on: APP; conditions: literature report; cited from earlier work
[10] = tested on: APP and its fragments; conditions: APP/PS1 transgenic mice, literature report; cited from earlier work
[11] = tested on: tau; conditions: unpublished observation, Peter Davies Laboratory; cited from earlier work
[12] = tested on: tau; conditions: Human tau mice, unpublished observation; cited from earlier work
[13] = tested on: αSYN; conditions: neuroblastoma cells; cited from earlier work
[14] = tested on: αSYN; conditions: transgenic Parkinson's animals, brain and gut; cited from earlier work
[15] = tested on: human SNCAA53T tg mouse model of PD; conditions: cited from earlier work
[16] = tested on: APP/PS1 transgenic (tg) mouse model of AD; conditions: cited from earlier work
[17] = tested on: Ts65dn mouse model of Down syndrome (DS); conditions: cited from earlier work
[18] = tested on: rat acute glaucoma model; conditions: cited from earlier work
[19] = tested on: traumatic brain injury rats; conditions: cited from earlier work
[20] = tested on: fully differentiated Down syndrome nerve cells; conditions: cited from earlier work
[21] = clinical; conditions: human, brain (relative to plasma)
[22] = tested on: APP, Tau, and αSYN in the cerebrospinal fluid (CSF); experiment: Study of MCI subjects: CSF and plasma markers before and after 10 days of buntanetap (proof of mechanism); conditions: 4×60 mg/day
[23] = 3 phase 3 clinical studies, failed; cited from earlier work
[24] = in vivo; cited from earlier work

In the case of `COc1ccc(CNc2c(CO)cnc3c(C4CC4)cc(C#N)cc23)cc1Cl` [7a, 4-[(3-Chloro-4-methoxybenzyl)amino]-8-cyclopropyl-3-(hydroxymethyl) quinoline-6-carbonitrile], the “Aβ-induced LTP defect” value ([1]; 7a 1 nM alone) is reported as “did not ameliorate”, the “% Improvement (based on change in Residual Potential; veh minus wt ab = 100%)” value ([1]; ab + 7a 1 nM) is reported as 14.23% and the “Residual Potential (mean)” value ([1]; ab + 7a 1 nM) is reported as 147.78. The “% Improvement (based on change in Residual Potential; veh minus wt ab = 100%)” value ([1]; ab + 7a 10 nM) was 59.63%, the “Residual Potential (mean)” value ([1]; ab + 7a 10 nM) was 174.99 and the “% Improvement (based on change in Residual Potential; veh minus wt ab = 100%)” value ([1]; ab + 7a 50 nM) was 106.8%. For the same compound, the “Residual Potential (mean)” value ([1]; ab + 7a 50 nM) was 207.77.
For `CN1CC[C@]2(C)c3cc(OC(=O)Nc4ccccc4)ccc3N(C)C12` (single isomer, unassigned) [buntanetap], the “axonal and synaptic function” value ([2]; AD and PD patients) was “improved”, the “blood brain barrier passage” value ([2]; AD and PD patients) was “crossed the blood brain barrier” and the inflammatory markers ([2]; AD and PD patients) was “reduced”. For the same compound, the neurotoxic protein biomarkers ([2]; AD and PD patients) was “reduced”, the “cognition as measured by ADAS-Cog11 and WAIS coding speed” value ([2]; AD patients, 80 mg QD, significant versus baseline) was “improved” and the “motor function as measured by MDS-UPDRS (Part II, III, IV and total)” value ([2]; PD patients, all doses 5-80 mg QD, maximum improvement for 10 & 20 mg) was “improved”. For the same compound, the “WAIS speed and accuracy” value ([2]; PD patients, significant versus placebo at 5 mg, 20 mg and 80 mg) was “improved”, the “Non-Responders (Number)” value ([3]; 7.5 mg) was 5 and the “Non-Responders (Percentage)” value ([3]; 7.5 mg) was “(26.32%)”. For the same compound, the “Responders (Number)” value ([3]; 7.5 mg) was 14, the “Responders (Percentage)” value ([3]; 7.5 mg) was “(73.68%)**” and the “Non-Responders (Number)” value ([3]; 15 mg) was 7. The “Non-Responders (Percentage)” value ([3]; 15 mg) was “(28.00%)”, the “Responders (Number)” value ([3]; 15 mg) was 18 and the “Responders (Percentage)” value ([3]; 15 mg) was “(72.00%)**”. For the same compound, the “Non-Responders (Number)” value ([3]; 30 mg) was 3, the “Non-Responders (Percentage)” value ([3]; 30 mg) was “(12.50%)” and the “Responders (Number)” value ([3]; 30 mg) was 21. The “Responders (Percentage)” value ([3]; 30 mg) was “(87.50%)***”, the “difference in the proportion of participants who improved relative to placebo” value ([3]; 30 mg group) was “three-fold” and the “% Improvement (based on change in Residual Potential; veh minus wt ab = 100%)” value ([1]; ab + buntanetap 1 μM) was 26.7%. The “Residual Potential (mean)” value ([1]; ab + buntanetap 1 μM) was 152.11, the “% Improvement (based on change in Residual Potential; veh minus wt ab = 100%)” value ([1]; ab + buntanetap 10 μM) was 110.7% and the “Residual Potential (mean)” value ([1]; ab + buntanetap 10 μM) was 210.49. The “Aβ-induced LTP defect” value ([1]; buntanetap 1 μM alone) was “did not ameliorate”, the “APP level (Western blot, in relation to Actin standard)” value [4] was “lowers APP in vitro in a dose-dependent manner” and the “duration of reduction of APP and all related peptides in hippocampus after the last dose” value ([5]; APP/PS1 mice) was “at least 9 hours”. For the same compound, the “APP and its fragments in hippocampus” value ([5]; APP/PS1 transgenic AD mice) was “reduced”, the tolerability ([6]; doses up to 4×60 mg daily×10 days) was “well tolerated” and the terminal half-life ([6]; plasma, all doses, cleared biphasically) was 4.3 to 4.7 h. For the same compound, the “duration of effect in lowering neurotoxic proteins and inflammation after the last dose” value ([7]; MCI subjects, CSF, 12 h sampling period) was no less than 12 h, the “CSF Aβ42” value ([7]; MCI subjects) was “trend to lower” and the “CSF levels of sAPPα, sAPPβ, t-tau, p-tau, and specific inflammatory markers” value ([7]; MCI subjects) was “significantly lowered”. The “half-life in CSF” value ([7]; MCI subjects) was greater than 12 h, the inflammation ([7]; human CSF of MCI subjects) was “lowered” and the “levels of neurotoxic proteins and inflammatory factors (biomarker data)” value ([8]; AD and PD cohorts) was “trend in lowering”. The “ADAS-Cog11 and WAIS coding” value ([8]; AD patients) was “statistically significant improvements”, the “MDS-UPDRS and WAIS coding” value ([8]; PD patients) was “statistically significant improvements” and the safety and tolerability ([8]; doses up to 80 mg, AD and PD patients) was “well tolerated”. For the same compound, the “Cmax and AUC” value ([8]; plasma, up to 80 mg QD) was “increased with dose without evidence for a plateau”, the “levels of APP in vitro in neuroblastoma cells” value [9] was “lowers” and the “levels of APP and all its fragments” value [10] was “lowers”. The tau in vitro [11] was “lowers”, the tau in vivo [12] was “lowers” and the αSYN in vitro [13] was “lowers”. For the same compound, the αSYN in vivo [14] was “lowers”, the colonic motility [15] was “Restored” and the memory and learning ([16]; APP/PS1 tg mouse model of AD) was “Restored”. The impaired synaptic transmission ([16]; hippocampus of APP/PS1 tg mice) was “Normalized”, the memory and learning [17] was “Restored” and the retina ([18]; acute glaucoma) was “Preserved”. The nerve cell protection ([18]; rat acute glaucoma model) was “protected”, the inflammation ([19]; rat brain after TBI) was “lowered” and the impaired synaptic transmission ([19]; rat striatum after TBI) was “Normalized”. For the same compound, the nerve cell protection ([19]; rat substantia nigra after TBI) was “protected”, the memory and learning ([19]; traumatic brain injury rats) was “Preserved” and the “anterograde and retrograde vesicle transport” value [20] was “Normalized”. The Kp [21] was roughly 8 and the “levels of APP, Tau, and αSYN in the cerebrospinal fluid (CSF)” value [22] was “normalized”.
For `CN1CC[C@@]2(C)c3cc(OC(=O)Nc4ccccc4)ccc3N(C)[C@@H]12` [phenserine, (−)-N-phenylcarbamoyl eseroline], the side effects [23] is listed as “high cholinomimetic side effects”.
In the case of `COc1ccc(CN=c2[nH]c(N3CCC[C@H]3CO)ncc2C(=O)NCc2ncccn2)cc1Cl` [avanafil], the half-life [24] is given as “about 5 hours”.

Source: patent US20250025444A1, “TREATMENT OF NEURODEGENERATIVE DISEASES VIA ADMINISTRATION OF BUNTANETAP AND A PHOSPHODIESTERASE INHIBITOR” (ANNOVIS BIO, INC., priority 2022, published 2025)
